In article PMC5851651, “Population-specific design of de-immunized protein biotherapeutics” (PLoS Computational Biology, 2018):

How the values were obtained:
[1] = test system: DRB1*15:01, DRB1*03:01 and DRB1*07:01; assay: Experimental immunogenicity score: relative HLA binding combined across alleles, weighted by allele frequency; set-up: species or system human; key: allele-frequency-weighted sum of binding, % of control peptide signal; conditions: for Difference to WT (Experimental Score): per peptide against wild-type counterpart; for Experimental Score: per peptide, weights DRB1*15:01 0.162, DRB1*07:01 0.146, DRB1*03:01 0.143
Procedure: (§1) To test the designs, we synthesized twenty overlapping 15-mer peptides containing the introduced mutations and their wild-type counterparts. The peptides maximally covered the predicted epitopes around the mutations of all designed constructs that contained one and two mutations (Supplementary S2 Table). The affinity of these peptides to the three HLA alleles was measured at time zero and after 24 hours (Methods, Supplementary S3 and S4 Tables). We linearly combined the measured relative affinity scores across HLA alleles weighted by their allele frequencies for each peptide respectively to produce a score that approximates the overall immunogenicity (Fig 5A). Results are presented for measurements taken at time point zero. […] Overall, the measured and predicted immunogenicity of the tested peptides correlated well with r = 0.76 (CI95 = [0.48, 0.91], t = 4.885, df = 17, p-value = 1.4e-4; Fig 5A). Next, we compared the predicted and measured gain or loss in immunogenicity for the whole region by reconstructing the targeted region using overlapping peptides. The measured relative scores were linearly combined (as previously) and then normalized to the number of overlapping peptides used in the reconstruction (Fig 5B). The difference in the measured scores between the wild type and mutant regions can be thought of as a proxy for gain or loss in immunogenicity and correlated well to the predicted changes (r = 0.86, CI95 = [0.40, 0.97], t = 4.136, df = 6, p-value = 6.1e-3; Fig 5B).
Fig 5 (A) Correlation of experimental and predicted immunogenicity of each peptide. The experimental immunogenicity score of a peptide is defined as the linear combination of the individual experimentally determined relative HLA binding affinity of each HLA allele h ∈ H weighted by the HLA allele frequency. (B) Correlation of experimental and predicted immunogenicity of the whole redesigned region. The summarized immunogenicity score of the whole region is the linear combination of the overlapping peptides used to reconstruct the region, normalized by total number of peptides used. The predicted immunogenicity scores per peptide were computed according to our immunogenicity objective function. The red lines are a fitted linear regression and the red tubes represent their 95-confidence interval.
(§2) In order to experimentally verify our in silico predictions for Factor VIII, we utilized the commercial REVEAL HLA-Peptide binding assay of ProImmune (www.proimmune.com). Peptides were synthesized using the PEPscreen custom library synthesis method, yielding high purity peptides for experimental analysis. HLA-peptide binding was assessed for the three HLA-DRB1 alleles used in this study (DRB1*15:01, DRB1*03:01 and DRB1*07:01). In short, the method compares the affinity of the studied peptide to the affinity of a high-affinity control peptide. Each peptide is then scored for binding to a certain HLA molecule relative to the score of the control peptide and reported as the percentage of the signal generated by the control peptide.

[2] = molecular target: T1, DRB1*03:01 (Homo sapiens, UniProt P01903+P01911, A100K/A102G/A103R/A169T/F55Y/I96L/K41T/L162R/M171V/P40S/Q125H/Q178H/Q39Y/R42S/S66N/T106N/T262R/W38E/Y61H); assay: REVEAL HLA-Peptide binding assay (ProImmune); conditions: score relative to high-affinity control peptide, percentage of the control signal
T1 construct: purchased ProImmune
Procedure: as §1, §2

[3] = molecular target: DRB1*07:01 (Homo sapiens, UniProt P01903+P01911, A100R/A102G/A103Q/D57E/D86V/E43K/F76Y/K127E/L162R/M171V/P40G/Q125H/Q99D/R33Q/R42Y/R54Q/S133A/S66F/T210M/V115G/Y107V/Y59L/Y89S); assay: REVEAL HLA-Peptide binding assay (ProImmune); conditions: score relative to high-affinity control peptide, percentage of the control signal
Procedure: as §1, §2

[4] = molecular target: T2, DRB1*15:01 (Homo sapiens, UniProt P01903+P01911); assay: REVEAL HLA-Peptide binding assay (ProImmune); conditions: score relative to high-affinity control peptide, percentage of the control signal
T2 construct: purchased ProImmune
Procedure: as §1, §2

[5] = time 0 (H0), listed as VNSLDPPLFTRYLRI
[6] = time 0 (H0), listed as VNSLDPPLLTRYLRI
[7] = time 0 (H0), listed as VNSLDPPLTTRYLRI
[8] = time 0 (H0), listed as VNSLDPPLYTRYLRI
[9] = time 0 (H0), listed as YTRYLRIHPQSWEHQ

| DRB1*03:01 ([2]; after 24 hours (H24)) [%] | DRB1*03:01 ([2]; time 0 (H0)) [%] | DRB1*07:01 ([3]; after 24 hours (H24)) [%] | DRB1*07:01 ([3]; time 0 (H0)) [%] | DRB1*15:01 ([4]; after 24 hours (H24)) [%] | DRB1*15:01 ([4]; time 0 (H0)) [%] | Sequence | Difference to WT (Experimental Score) ([1]; after 24 hours (H24)) | Experimental Score ([1]; after 24 hours (H24)) | Difference to WT (Experimental Score) ([1]; time 0 (H0)) | Experimental Score ([1]; time 0 (H0)) | other results |
| --- | --- | --- | --- | --- | --- | --- | --- | --- | --- | --- | --- |
| 0.000 | 0.697 | 0.370 | 0.810 | 0.000 | 7.274 | VNSLDPPLLTRYLRI [WT-1, wild-type peptide of Factor VIII C2 domain, reference compound] |  | 0.054 |  | 1.396 | DRB1*03:01 [2, 6]: 0.7%; DRB1*07:01 [3, 6]: 0.8%; DRB1*15:01 [4, 6]: 7.3% |
| 0.000 | 0.000 | 0.900 | 3.600 | 0.000 | 0.000 | VNSLDPPLYTRYLRI [Design M-3, peptide covering L2321Y] | 0.077 | 0.131 | -0.871 | 0.526 | DRB1*03:01 [2, 8]: 0%; DRB1*07:01 [3, 8]: 3.6%; DRB1*15:01 [4, 8]: 0% |
| 0.200 | 0.155 | 40.700 | 59.728 | 0.700 | 3.876 | YTRYLRIHPQSWEHQ [Design M-12, peptide covering L2321Y, V2333E] | -7.303 | 6.084 | -8.351 | 9.370 | DRB1*03:01 [2, 9]: 0.2%; DRB1*07:01 [3, 9]: 59.7%; DRB1*15:01 [4, 9]: 3.9% |

The remaining lines, values behind:

| Sequence | DRB1*03:01 ([2]; after 24 hours (H24)) [%] | DRB1*03:01 ([2]; time 0 (H0)) [%] | DRB1*07:01 ([3]; after 24 hours (H24)) [%] | DRB1*07:01 ([3]; time 0 (H0)) [%] | DRB1*15:01 ([4]; after 24 hours (H24)) [%] | DRB1*15:01 ([4]; time 0 (H0)) [%] | Difference to WT (Experimental Score) ([1]; after 24 hours (H24)) | Experimental Score ([1]; after 24 hours (H24)) | Difference to WT (Experimental Score) ([1]; time 0 (H0)) | Experimental Score ([1]; time 0 (H0)) | other results |
| --- | --- | --- | --- | --- | --- | --- | --- | --- | --- | --- | --- |
| VNSLDPPLFTRYLRI [Design M-1, peptide covering L2321F] | 0.165 | 0.165 | 0.497 | 6.490 | 0.000 | 0.427 | 0.042 | 0.096 | -0.356 | 1.040 | DRB1*03:01 [2, 5]: 0.2%; DRB1*07:01 [3, 5]: 6.5%; DRB1*15:01 [4, 5]: 0.4% |
| VNSLDPPLTTRYLRI [Design M-2, peptide covering L2321T] | 0.000 | 0.100 | 0.000 | 0.100 | 0.000 | 0.000 | -0.054 | 0.000 | -1.367 | 0.029 | DRB1*03:01 [2, 7]: 0.1%; DRB1*07:01 [3, 7]: 0.1%; DRB1*15:01 [4, 7]: 0% |
